One compound from US6410545B1, “Lipid lowering quinazoline dietary supplement composition” (Parker Hughes Institute, priority 1998, dated 2002) can be followed below.

Data set [1] has as its system apo e−/− mice. The data set can be described thus: Blood chemistry and histopathology of treated apo e−/− mice. It counts as in vivo. The following applies: 8 mg/kg/day or 40 mg/kg/day. Here is the method:
Animals were treated with test compounds by intraperitoneal injection daily for 7 days. A range of doses was administered. Control animals received vehicle alone. The effect of quinazoline derivatives on total cholesterol, LDL, HDL, liver enzymes, and glucose was analyzed. The mice tissues were also examined histologically.
Serum levels alanine aminotransferase (ALT), alkaline phosphatase (ALP), lactate dehydrogenase (LDH), blood urea nitrogen (BUN), creatinine, creatinine phosphokinase (CPK), and glucose were determined by using a Synchron CX5 Clinical System (Beckman Instruments, Inc., Fullerton, Calif.) following manufacturer's instructions. For the glucose tolerance test, blood glucose levels were determined using the portable One Touch Profile glucose meter (Lifescan, Milpitas, Calif., USA).
At the end of the experiment, the animals were sacrificed and the harvested tissues were fixed in 10% phosphate buffered formalin overnight, embedded, sectioned, and stained by hematoxylin and eosin (H&E). The stained sections were examined for pathological changes. For Oil Red O staining, the liver was excised and snap frozen in liquid nitrogen. Five micrometer thick sections were obtained using the LeicaCM1800 cryostat (Heerbrugg, Switzerland), stained in 0.5% Oil Red O in propylene glycol for 1 hour, destained in 85% propylene glycol for 1 minute, rinsed twice in distilled water, counterstained in Mayer's hematoxylin for a few seconds, rinsed twice in distilled water, and mounted in Crystalmount (Biomedia Corp., Foster City, Calif.). The Oil Red O stainable material at 400 X magnification was quantitated using the ImagePro plus program (Media Cybernetics, Silver Spring, Md., USA) in conjunction with a 3CCD camera (DAGE-MTI Inc., Michigan City, USA).

In data set [2] the test system is apo e−/− mice. Description: Regression of pre-existing atherosclerotic lesions (Sudan IV stained aortas) in apo e−/− mice. Format: in vivo. The conditions noted are these: apo e−/− mice 7 months on Western diet, 40mg/kg/day for one month. The text has this: Aortas from untreated (FIG. 6A), vehicle treated (FIG. 6B), and WHI-P164 treated (FIG. 6C) animals were stained with Sudan IV to show the fatty streaks. Aortas of untreated control mice were obtained at 7 months to reflect the pretreatment condition of the test groups. Aortas of vehichle treated or WHI-P164 treated test mice were obtained at 8 months following a one month treatment program. Statistical comparisons indicate **p=0.002 for untreated controls versus WHI-P164 treated test mice and p=0.007 for vehicle controls versus WHI-P164 treated mice.
The effectiveness of WHI-P164 against pre-existing atherosclerotic lesions in apo e^−/− mice kept 7 months on high fat Western diet was examined. apo e^−/− mice were treated with either vehicle control or WHI-P164 at 40mg/kg/day for one month. […] Treatment with WHI-P164 caused a marked regression of the atherosclerotic lesions with fatty streaks covering only 23±2% (n=7) of the aortic surface (FIG. 6B), as compared to 40±5% in untreated mice (n=3) (FIG. 6A) (p=0.002) and 40±5% in the vehicle-treated mice (n=8) (FIG. 6C) (p=0.007).

On to `COc1cc2ncnc(C(=O)c3cccc(Br)c3)c2cc1OC` [WHI-P164, 4-(3′-bromobenzoyl)-6,7-dimethoxyquinazoline], for which, in the data set on apo e−/− mice [1], the “Clinical or laboratory signs of toxicity” value was “not associated with any obvious clinical or laboratory signs of toxicity”; the “Histopathologic examination of tissues” value was “did not reveal any drug related toxic lesions”; the “Liver enzymes (ALT, AST, ALP, LDH), CPK levels, and BUN/Creatinine” value is recorded as “remained within normal limits”. For the same compound, in the data set with apo e−/− mice [2], the “Aortic surface covered by fatty streaks stainable by Sudan IV” value came to 23±2%.
